The values that follow come from PubChem BioAssay (NCI).

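Cells were grown in 96-well plates and exposed to each compound for 48 hours at five concentrations; endpoints were interpolated linearly between bracketing concentrations, or set to the highest concentration if not reached. GI50: concentration for 50% inhibition of growth. TGI denotes the concentration required for complete inhibition of growth.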 Some results are limits rather than exact numbers.

Test systems include KM20L2 colon; M14 melanoma; NCI-H460 lung; OVCAR-5 ovarian; SN12C renal; MOLT-4 leukemia; SNB-78 CNS; SR leukemia; HS 578T breast; NCI/ADR-RES ovarian.
Common to all, as to experiment: NCI anticancer screen, dose series, 48 h

On to `O=c1nc(NC(c2ccccc2)(c2ccccc2)c2ccccc2)ccn1CCNCCn1ccc(NC(c2ccccc2)(c2ccccc2)c2ccccc2)nc1=O`, for which the TGI was 30.1 µM in the test on KM20L2 colon; 69.3 µM in the test on M14 melanoma; 33.8 µM in the test with NCI-H460 lung; above 100 µM in the test on OVCAR-5 ovarian; 44.1 µM in the test on SN12C renal.

`CN(C)CCNC(=O)c1cccc2[nH]c(-c3cccnc3)nc12`: the TGI in the test on M14 melanoma is 43.8 µM; in the test on MOLT-4 leukemia, above 100 µM; in the test on NCI-H460 lung it was 49.9 µM; in the test with OVCAR-5 ovarian, 64.2 µM; with SN12C renal, 54.4 µM; in the test on SNB-78 CNS it was above 100 µM.

For `COc1ccc(CC(=O)NCCc2ccc(OC)c(OC)c2)cc1Br`, the TGI with KM20L2 colon, with MOLT-4 leukemia, in the test with NCI-H460 lung, with OVCAR-5 ovarian, in the test with SN12C renal and in the test with SR leukemia was above 100 µM in each case.

On to `Fc1ccccc1C1SCc2nc3ccccc3n21` (configuration not stated), for which the TGI in the test on MOLT-4 leukemia, in the test on NCI-H460 lung, with OVCAR-5 ovarian, in the test with SN12C renal, with SNB-78 CNS and in the test with SR leukemia was above 100 µM throughout.

As for `CCN1Cc2c(ccc(F)c2C#N)O[C@@H](C)CNC(=O)c2c(N)nn3ccc1nc23`, the GI50 in the test with HS 578T breast was 0.652 µM; in the test with M14 melanoma, 0.678 µM; in the test on MOLT-4 leukemia, 2.75 µM; in the test on NCI-H460 lung it was 2.42 µM; in the test on NCI/ADR-RES ovarian it was 6.03 µM; in the test with OVCAR-5 ovarian, 2.87 µM. Further, the GI50 with SN12C renal is 1.35 µM; in the test with SR leukemia it was 0.626 µM. Further, the TGI with HS 578T breast was determined as 4.71 µM; in the test on M14 melanoma, 11.1 µM; with MOLT-4 leukemia, 69.2 µM; with NCI-H460 lung, 28.9 µM; with NCI/ADR-RES ovarian it was 56.3 µM; in the test on OVCAR-5 ovarian, 19.8 µM. The TGI with SN12C renal is 18.5 µM; with SR leukemia, above 100 µM.

For the molecule `O=C(Nc1ccc2[nH]c(=S)sc2c1)Nc1ccccc1F`, the GI50 with HS 578T breast is 37.6 µM; in the test with M14 melanoma it was 42.4 µM; in the test on MOLT-4 leukemia, 22.4 µM; in the test on NCI-H460 lung it was 38 µM; in the test on NCI/ADR-RES ovarian it was 21.9 µM; in the test on OVCAR-5 ovarian, 56.4 µM. Further, the GI50 in the test with SN12C renal is 41.9 µM; in the test on SR leukemia, 17.5 µM. Also, the TGI with HS 578T breast, in the test on M14 melanoma, in the test on MOLT-4 leukemia, with NCI-H460 lung, with NCI/ADR-RES ovarian and with OVCAR-5 ovarian was above 100 µM each time. Also, the TGI in the test on SN12C renal and in the test with SR leukemia was above 100 µM each time.

Regarding `COc1cc(/C=C/C(=O)c2c(C)nc3ccccc3c2/C=C/c2ccc(C)cc2)cc(OC)c1OC`, the GI50 in the test on HS 578T breast was 3.26 µM; in the test with M14 melanoma, 2.18 µM; in the test with MOLT-4 leukemia, 2.56 µM; in the test with NCI-H460 lung, 2.06 µM; with NCI/ADR-RES ovarian, 2.48 µM; in the test on OVCAR-5 ovarian it was 2.18 µM. The GI50 was 1.85 µM with SN12C renal and 2 µM with SR leukemia. In addition, the TGI with HS 578T breast was above 100 µM; in the test on M14 melanoma, 5.03 µM; with MOLT-4 leukemia, above 100 µM; in the test with NCI-H460 lung it was 5.09 µM; in the test with NCI/ADR-RES ovarian, 7.78 µM; in the test on OVCAR-5 ovarian, 5.38 µM. Also, the TGI in the test with SN12C renal amounted to 4.31 µM; in the test on SR leukemia it was 9.11 µM.

In the case of `Cc1[nH]c(=O)n2c(C)nnc2c1C(=O)Nc1cc(Cl)cc(Cl)c1`, the TGI in the test with M14 melanoma is above 100 µM; with MOLT-4 leukemia, above 100 µM; in the test with NCI-H460 lung, above 100 µM; in the test with OVCAR-5 ovarian it was above 100 µM; in the test with SN12C renal, 66.5 µM; in the test with SNB-78 CNS, 69.6 µM. In the test on SR leukemia, the TGI came to 66.5 µM.

On to `O=C(O)CNS(=O)(=O)c1ccc(NC(=O)CI)cc1`, for which the TGI in the test with KM20L2 colon is 54.5 µM; in the test with M14 melanoma, 44.3 µM; in the test with MOLT-4 leukemia it was 34.5 µM; in the test on NCI-H460 lung, 64 µM; with OVCAR-5 ovarian it was 61.1 µM; with SN12C renal it was above 100 µM.

Regarding `COC(=O)CCC1CCC(c2cc(F)ccc2F)(S(=O)(=O)c2ccc(Cl)cc2)CC1` (configuration not stated), the GI50 with HS 578T breast was above 100 µM; with M14 melanoma, 55.4 µM; with MOLT-4 leukemia it was 49.8 µM; in the test on NCI-H460 lung it was 52.1 µM; with NCI/ADR-RES ovarian, above 100 µM; in the test with OVCAR-5 ovarian it was above 100 µM. The GI50 with SN12C renal and in the test on SR leukemia was above 100 µM throughout. The TGI in the test with HS 578T breast, in the test on M14 melanoma, in the test on MOLT-4 leukemia, with NCI-H460 lung, in the test on NCI/ADR-RES ovarian and in the test on OVCAR-5 ovarian was above 100 µM each time. For the same molecule, the TGI in the test with SN12C renal and in the test with SR leukemia was above 100 µM throughout.

In the case of `Cc1ccc2c(c1)C(C)Cc1c(Cl)ncnc1N2C` (configuration not stated), the GI50 in the test on HS 578T breast is 1.89 µM; in the test with M14 melanoma, 2.77 µM; in the test with MOLT-4 leukemia, 3.37 µM; in the test with NCI-H460 lung, 3.66 µM; in the test with NCI/ADR-RES ovarian, 2.73 µM; in the test on OVCAR-5 ovarian it was 5.05 µM. Moreover, the GI50 was 3.64 µM with SN12C renal and 3.53 µM with SR leukemia. Besides, the TGI in the test with HS 578T breast was 34 µM; in the test with M14 melanoma, 22.9 µM; in the test on MOLT-4 leukemia it was above 100 µM; in the test on NCI-H460 lung it was 91 µM; in the test on NCI/ADR-RES ovarian it was 23.1 µM; in the test on OVCAR-5 ovarian, 49.3 µM. Further, the TGI with SN12C renal is 13.7 µM; in the test on SR leukemia it was above 100 µM.

On to `N#CC1=C(N)Oc2c(sc3c(Br)cccc23)C1c1ccc(Br)cc1` (configuration not stated), for which the GI50 with HS 578T breast was 2.44 µM; in the test with M14 melanoma, 0.515 µM; in the test with MOLT-4 leukemia, 0.546 µM; with NCI-H460 lung, 0.668 µM; in the test with NCI/ADR-RES ovarian it was 0.416 µM; with OVCAR-5 ovarian, 3.12 µM. The values for the GI50 with SN12C renal and with SR leukemia were 2.33 µM and 0.208 µM, respectively. In addition, the TGI in the test on HS 578T breast was found to be 13.5 µM; in the test with M14 melanoma, 3.5 µM; with MOLT-4 leukemia it was 8.11 µM; in the test with NCI-H460 lung it was 4.51 µM; with NCI/ADR-RES ovarian, 5.14 µM; in the test with OVCAR-5 ovarian, 14.3 µM. Moreover, the figures for the TGI with SN12C renal and with SR leukemia were 13.4 µM and 5.91 µM, respectively.
